Measured values reported in patent US20100311729A1, “Substituted imidazopyridazines and pyrrolopyrimidines as lipid kinase inhibitors” (priority 2007, published 2010).

Tests used:
Format in all cases: biochemical
PI3K alfa = molecular target: T1, PI3K alfa (Homo sapiens, UniProt P42336); experiment: PI3 kinase assay (Kinase-Glo luminescence), PI3K alfa; conditions: Enzymatic Data; read-out: PI3K alfa IC50 [umol]
T1 construct: for the p110-a subunit (with a deletion of the first 20 amino acids); His tag (C); made in house; host or cells: baculovirus; Tn5 (Trichoplusia ni) or TiniPro insect cells
T1 sequence (P42336 with tags, fused parts or gaps limits assumed): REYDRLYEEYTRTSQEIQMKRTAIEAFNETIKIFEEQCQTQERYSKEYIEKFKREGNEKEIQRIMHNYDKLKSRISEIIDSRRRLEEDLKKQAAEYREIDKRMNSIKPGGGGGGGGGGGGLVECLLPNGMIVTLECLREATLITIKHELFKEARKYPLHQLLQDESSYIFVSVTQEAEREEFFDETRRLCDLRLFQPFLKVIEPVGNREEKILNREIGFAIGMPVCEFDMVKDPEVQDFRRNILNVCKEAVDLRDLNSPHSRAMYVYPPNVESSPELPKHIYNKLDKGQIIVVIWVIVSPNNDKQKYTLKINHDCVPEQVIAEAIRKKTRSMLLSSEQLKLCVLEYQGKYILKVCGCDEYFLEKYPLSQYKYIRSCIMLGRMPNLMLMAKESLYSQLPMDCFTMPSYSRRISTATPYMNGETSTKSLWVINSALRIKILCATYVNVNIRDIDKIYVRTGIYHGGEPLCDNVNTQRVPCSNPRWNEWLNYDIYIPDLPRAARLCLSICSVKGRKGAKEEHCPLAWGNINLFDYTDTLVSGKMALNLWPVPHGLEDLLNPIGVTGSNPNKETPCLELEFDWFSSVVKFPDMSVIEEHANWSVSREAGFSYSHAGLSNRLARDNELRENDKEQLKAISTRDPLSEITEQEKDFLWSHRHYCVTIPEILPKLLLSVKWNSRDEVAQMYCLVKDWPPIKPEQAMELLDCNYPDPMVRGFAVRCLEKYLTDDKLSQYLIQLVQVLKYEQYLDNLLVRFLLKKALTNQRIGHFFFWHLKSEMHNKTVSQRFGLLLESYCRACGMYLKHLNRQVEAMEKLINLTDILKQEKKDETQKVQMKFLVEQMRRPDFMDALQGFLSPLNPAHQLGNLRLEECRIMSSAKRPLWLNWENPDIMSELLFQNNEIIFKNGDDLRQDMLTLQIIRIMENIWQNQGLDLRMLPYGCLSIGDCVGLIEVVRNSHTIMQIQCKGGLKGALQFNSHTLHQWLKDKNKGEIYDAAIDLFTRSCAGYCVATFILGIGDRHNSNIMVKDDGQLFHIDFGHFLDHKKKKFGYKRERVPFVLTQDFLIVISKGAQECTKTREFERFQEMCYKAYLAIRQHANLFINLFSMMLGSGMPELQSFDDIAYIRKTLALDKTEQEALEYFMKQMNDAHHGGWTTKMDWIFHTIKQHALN
Summary of the method: (§1)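 Recombinant PI3K constructs (alfa 10 nM, delta 10 nM, gamma 150 nM) with 1 μM ATP and 10 μg/mL phosphatidylinositol in Tris pH 7.5, MgCl2, NaCl, CHAPS, DTT; 60 min (alfa, delta) or 120 min (gamma) at room temperature. ATP depletion read by Kinase-Glo luminescence; IC50 from 4-parameter logistic fit over 8 concentrations.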

PI3K beta = molecular target: T2, PI3K beta (Homo sapiens, UniProt P42338); experiment: PI3 kinase assay (Kinase-Glo luminescence), PI3K beta; conditions: Enzymatic Data; read-out: PI3K beta IC50 [umol]
T2 construct: for the full-length p110-b subunit are generated and fused by overlapping PCR; His tag (C); made in house; host or cells: baculovirus; Tn5 (Trichoplusia ni) or TiniPro insect cells
T2 sequence (P42338 with tags, fused parts or gaps limits assumed): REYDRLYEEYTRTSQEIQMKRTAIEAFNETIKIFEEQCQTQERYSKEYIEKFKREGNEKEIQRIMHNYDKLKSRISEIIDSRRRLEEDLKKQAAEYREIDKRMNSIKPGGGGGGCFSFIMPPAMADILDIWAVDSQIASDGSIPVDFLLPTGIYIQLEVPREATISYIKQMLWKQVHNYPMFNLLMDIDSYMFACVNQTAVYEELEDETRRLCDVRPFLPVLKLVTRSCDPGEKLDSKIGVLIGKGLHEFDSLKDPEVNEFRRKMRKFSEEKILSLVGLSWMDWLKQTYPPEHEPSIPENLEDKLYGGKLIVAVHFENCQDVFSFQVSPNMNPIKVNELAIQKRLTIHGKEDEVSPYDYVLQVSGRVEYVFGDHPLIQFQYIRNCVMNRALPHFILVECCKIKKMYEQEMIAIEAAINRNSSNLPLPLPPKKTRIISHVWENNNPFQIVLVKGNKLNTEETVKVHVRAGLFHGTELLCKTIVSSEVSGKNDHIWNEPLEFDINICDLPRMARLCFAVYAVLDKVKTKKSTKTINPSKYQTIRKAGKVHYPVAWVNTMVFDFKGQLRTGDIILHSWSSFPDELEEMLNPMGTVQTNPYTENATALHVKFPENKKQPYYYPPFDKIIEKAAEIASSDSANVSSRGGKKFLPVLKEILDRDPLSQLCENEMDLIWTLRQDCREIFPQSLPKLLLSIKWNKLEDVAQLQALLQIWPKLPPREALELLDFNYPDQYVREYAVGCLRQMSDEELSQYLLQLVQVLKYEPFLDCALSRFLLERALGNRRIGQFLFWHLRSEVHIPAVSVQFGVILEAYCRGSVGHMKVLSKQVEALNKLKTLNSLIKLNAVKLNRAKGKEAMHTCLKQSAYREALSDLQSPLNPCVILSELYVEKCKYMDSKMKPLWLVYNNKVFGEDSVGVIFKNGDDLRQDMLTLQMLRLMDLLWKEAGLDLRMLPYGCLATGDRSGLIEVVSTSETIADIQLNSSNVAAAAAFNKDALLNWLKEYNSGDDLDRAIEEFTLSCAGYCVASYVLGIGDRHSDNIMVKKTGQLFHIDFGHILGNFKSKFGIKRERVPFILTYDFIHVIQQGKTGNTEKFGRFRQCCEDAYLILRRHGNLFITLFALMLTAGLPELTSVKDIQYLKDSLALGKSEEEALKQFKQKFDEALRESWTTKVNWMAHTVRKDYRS
Summary of the method: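 PI3Kβ (25 nM, BV-949) with 10 μg/mL phosphatidylinositol in Tris pH 7.5/MgCl2/NaCl/CHAPS/DTT buffer; reaction started with 1 μM ATP, 60 min at room temperature. ATP depletion read by Kinase-Glo luminescence; 8-point dilutions, IC50 by four-parameter logistic fit.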

PI3K gamma = molecular target: T3, PI3K gamma (Homo sapiens, UniProt P48736); experiment: PI3 kinase assay (Kinase-Glo luminescence), PI3K gamma; conditions: Enzymatic Data; read-out: PI3K gamma IC50 [umol]
T3 construct: PI3Kγ BV-950 p110g(D144aa)-C-Term His Tag; His tag (C); made in house; host or cells: construct from the Roger Williams lab (MRC LMB) in pVL1393; baculovirus; Tn5 (Trichoplusia ni) or TiniPro insect cells
T3 sequence (P48736 144-1102 limits assumed): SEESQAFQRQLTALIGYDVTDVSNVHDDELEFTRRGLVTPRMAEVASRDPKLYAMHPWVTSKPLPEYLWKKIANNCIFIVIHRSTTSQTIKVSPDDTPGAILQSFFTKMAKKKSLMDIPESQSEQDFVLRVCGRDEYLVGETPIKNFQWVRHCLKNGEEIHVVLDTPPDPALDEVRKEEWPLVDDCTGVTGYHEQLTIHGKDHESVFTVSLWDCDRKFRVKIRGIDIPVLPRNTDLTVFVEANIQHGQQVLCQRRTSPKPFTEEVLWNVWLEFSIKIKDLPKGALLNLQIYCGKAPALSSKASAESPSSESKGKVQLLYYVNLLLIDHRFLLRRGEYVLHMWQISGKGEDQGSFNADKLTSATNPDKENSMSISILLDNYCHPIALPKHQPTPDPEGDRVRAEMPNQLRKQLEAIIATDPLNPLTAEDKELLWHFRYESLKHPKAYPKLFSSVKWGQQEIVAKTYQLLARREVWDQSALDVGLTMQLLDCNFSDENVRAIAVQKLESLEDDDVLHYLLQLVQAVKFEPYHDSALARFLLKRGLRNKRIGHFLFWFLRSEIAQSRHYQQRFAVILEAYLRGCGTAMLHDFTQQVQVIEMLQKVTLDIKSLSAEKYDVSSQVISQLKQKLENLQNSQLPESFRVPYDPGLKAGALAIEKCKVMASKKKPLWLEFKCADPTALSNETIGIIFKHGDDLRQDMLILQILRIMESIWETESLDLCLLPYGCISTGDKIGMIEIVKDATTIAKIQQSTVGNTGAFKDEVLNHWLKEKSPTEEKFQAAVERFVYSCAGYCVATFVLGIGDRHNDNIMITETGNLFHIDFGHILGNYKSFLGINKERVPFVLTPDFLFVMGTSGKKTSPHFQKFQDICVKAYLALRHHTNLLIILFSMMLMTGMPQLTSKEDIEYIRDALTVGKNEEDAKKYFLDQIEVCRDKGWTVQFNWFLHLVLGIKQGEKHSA
Summary of the method: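 Kinase-Glo luminescence assay with 1 μM ATP and 10 μg/mL phosphatidylinositol (final), reaction started by ATP addition. IC50 from 4-parameter logistic fit of percent inhibition at 8 compound concentrations (usually 10 down to 0.003 […]).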

PI3K delta = molecular target: T4, PI3K delta (Homo sapiens, UniProt O00329); experiment: PI3 kinase assay (Kinase-Glo luminescence), PI3K delta; conditions: Enzymatic Data; read-out: PI3K delta IC50 [umol]
T4 construct: for the full-length p110-d subunit are generated and fused by overlapping PCR; His tag (C); made in house; host or cells: baculovirus; Tn5 (Trichoplusia ni) or TiniPro insect cells
T4 sequence (O00329 with tags, fused parts or gaps limits assumed): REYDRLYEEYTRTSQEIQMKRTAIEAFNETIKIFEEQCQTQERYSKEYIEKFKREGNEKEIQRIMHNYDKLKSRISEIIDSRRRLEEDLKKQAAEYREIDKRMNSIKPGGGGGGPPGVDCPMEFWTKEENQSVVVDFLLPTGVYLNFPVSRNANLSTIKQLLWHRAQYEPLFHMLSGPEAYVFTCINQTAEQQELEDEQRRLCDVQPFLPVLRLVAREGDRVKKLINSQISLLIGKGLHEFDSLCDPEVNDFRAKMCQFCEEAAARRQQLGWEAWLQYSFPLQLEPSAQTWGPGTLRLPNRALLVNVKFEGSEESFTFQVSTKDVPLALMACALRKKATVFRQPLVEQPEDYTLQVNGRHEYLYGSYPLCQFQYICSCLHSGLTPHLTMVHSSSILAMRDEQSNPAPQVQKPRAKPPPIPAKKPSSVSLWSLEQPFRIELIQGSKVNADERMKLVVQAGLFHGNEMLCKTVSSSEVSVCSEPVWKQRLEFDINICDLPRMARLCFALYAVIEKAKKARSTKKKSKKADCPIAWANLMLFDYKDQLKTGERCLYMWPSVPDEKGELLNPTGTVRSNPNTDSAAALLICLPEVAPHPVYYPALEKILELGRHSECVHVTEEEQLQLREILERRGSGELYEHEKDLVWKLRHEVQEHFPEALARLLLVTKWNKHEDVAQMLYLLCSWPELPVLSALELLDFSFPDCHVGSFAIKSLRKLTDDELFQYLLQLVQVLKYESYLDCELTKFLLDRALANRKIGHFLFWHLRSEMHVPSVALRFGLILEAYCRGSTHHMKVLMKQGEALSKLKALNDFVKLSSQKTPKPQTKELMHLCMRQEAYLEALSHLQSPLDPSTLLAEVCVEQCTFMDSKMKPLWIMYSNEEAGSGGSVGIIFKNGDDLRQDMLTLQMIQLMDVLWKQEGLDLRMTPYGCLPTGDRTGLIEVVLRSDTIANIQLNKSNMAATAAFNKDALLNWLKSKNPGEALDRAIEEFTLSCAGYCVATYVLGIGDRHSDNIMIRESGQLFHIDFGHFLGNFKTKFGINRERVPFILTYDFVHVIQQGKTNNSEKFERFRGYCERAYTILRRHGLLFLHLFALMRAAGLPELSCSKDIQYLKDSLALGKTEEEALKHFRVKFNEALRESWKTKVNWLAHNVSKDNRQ
Summary of the method: as §1

Row | SMILES | IC50 (PI3K alfa) | IC50 (PI3K beta) | IC50 (PI3K gamma) | IC50 (PI3K delta)
1 | Nc1ncc(-c2cnc3ccc(-c4ccc(OCCCNC(=O)C5CC5)cc4)nn23)cc1C(F)(F)F [Example 58, Cyclopropanecarboxylic acid (3-{4-[3-(6-amino-5-trifluoromethyl-pyridin-3-yl)-imidazo[1,2-b]pyridazin-6-yl]-phenoxy}-propyl)-amide] | 87 nM | > 9100 nM | > 9100 nM | 2140 nM
2 | COc1cc(-c2ccc3ncc(-c4ccc(S(=O)(=O)CCN5CCOCC5)cc4)n3n2)ccc1OCCN1CCCC1=O [Example 111, 1-[2-(2-Methoxy-4-{3-[4-(2-morpholin-4-yl-ethane-sulfonyl)-phenyl]-imidazo [1,2-b]pyridazin-6-yl}-phenoxy)-ethyl]-pyrrolidin-2-one] | 954 nM | 7550 nM | > 9100 nM | 427 nM
3 | COc1cc(-c2ccc3ncc(-c4cnc(N)c(C(F)(F)F)c4)n3n2)ccc1OCCCN1CCNC1=O [Example 164, 1-(3-{4-[3-(6-Amino-5-trifluoro-methyl-pyridin-3-yl)-imidazo [1,2-b]pyridazin-6-yl]-2-methoxy-phenoxy}-propyl)-imidazolidin-2-one] | 6 nM | 154 nM | 453 nM | 26 nM
4 | NCCCOc1ccc(-c2ccc3ncc(-c4cnc(N)c(C(F)(F)F)c4)n3n2)cc1OC(F)(F)F [Example 63, 5-{6-[4-(3-Amino-propoxy)-3-trifluoro-methoxy-phenyl]-imidazo [1,2-b]pyridazin-3-yl}-3-trifluoro-methyl-pyridin-2-ylamine] | 153 nM | 176 nM | 39 nM | 180 nM
5 | COc1cc(-c2cnc3ccc(-c4cnc(N)c(C(F)(F)F)c4)nn23)ccc1C(=O)NCCN1CCOCC1 [Example 115, 4-[6-(6-Amino-5-trifluoro-methyl-pyridin-3-yl)-imidazo [1,2-b]pyridazin-3-yl]-2-methoxy-N-(2-morpholin-4-yl-ethyl)-benzamide] | 9 nM | 78 nM | 397 nM | 22 nM
6 | COc1cc(-c2cnc3ccc(-c4cnc(N)c(C(F)(F)F)c4)nn23)ccc1C(=O)N1CCN(Cc2ccccn2)CC1 [Example 116, {4-[6-(6-Amino-5-trifluoro-methyl-pyridin-3-yl)-imidazo [1,2-b]pyridazin-3-yl]-2-methoxy-phenyl}-(4-pyridin-2-ylmethyl-piperazin-1-yl)-methanone] | 3 nM | 42 nM | 410 nM | 4 nM
7 | COc1cc(-c2cnc3ccc(-c4cnc(N)c(C(F)(F)F)c4)nn23)c(F)cc1C(=O)NCCCN1CCOCC1 [Example 159, 4-[6-(6-Amino-5-trifluoro-methyl-pyridin-3-yl)-imidazo [1,2-b]pyridazin-3-yl]-5-fluoro-2-methoxy-N-(3-morpholin-4-yl-propyl)-benzamide] | 18 nM | 36 nM | 617 nM | 13 nM
8 | COc1cc(-c2cnc3ccc(-c4cnc(N)c(C(F)(F)F)c4)nn23)ccc1C(=O)N1CCN(CC(=O)N2CCOCC2)CC1 [Example 119, 2-(4-{4-[6-(6-Amino-5-trifluoro-methyl-pyridin-3-yl)-imidazo [1,2-b]pyridazin-3-yl]-2-methoxy-benzoyl}-piperazin-1-yl)-1-morpholin-4-yl-ethanone] | 9 nM | 137 nM | 406 nM | 13 nM
9 | CC(=O)N1CCN(C(=O)c2ccc(-c3cnc4ccc(-c5cnc(N)c(C(F)(F)F)c5)nn34)cc2)CC1 [Example 82, 1-(4-{4-[6-(6-Amino-5-trifIuoro-methyl-pyridin-3-yl)-imidazo [1,2-b]pyridazin-3-yl]-benzoyl}-piperazin-1-yl)-ethanone] | 18 nM | 169 nM | 526 nM | 7 nM
10 | COc1ccc(-c2ccc3ncc(-c4cnc(N)c(C(F)(F)F)c4)n3n2)cc1 [Example 46, 5-[6-(4-Methoxy-phenyl)-imidazo[1,2 b]pyridazin-3-yl]-3 trifluoro-methyl-pyridin-2-ylamine] | 1620 nM | 6280 nM | > 9100 nM | 2980 nM
11 | Nc1ncc(-c2cnc3ccc(-c4ccc(OCCCNC(=O)C5CC5)nc4)nn23)cc1C(F)(F)F [Example 177, Cyclo-propane-carboxylic acid (3-{5-[3-(6-amino-5-trifluoro-methyl-pyridin-3-yl)-imidazo [1,2-b]pyridazin-6-yl]-pyridin-2-yloxy}-propyl)-amide] | 11 nM | 331 nM | > 9100 nM | 92 nM
12 | CC(=O)c1ccc(CNC(=O)c2ccc(-c3cnc4ccc(-c5cnc(N)c(C(F)(F)F)c5)nn34)cc2)cc1 [Example 84, N-(4-Acetyl-benzyl)-4-[6-(6-amino-5-trifluoromethyl-pyridin-3-yl)-imidazo [1,2-b]pyridazin-3-yl]-benzamide] | 87 nM | 5560 nM | 3240 nM | 308 nM
13 | Nc1ncc(-c2ccc3ncc(-c4ccc(C(=O)NCCn5ccnc5)cc4F)n3n2)cc1C(F)(F)F [Example 156, 4-[6-(6-Amino-5-trifluoro-methyl-pyridin-3-yl)-imidazo [1,2-b]pyridazin-3-yl]-3-fluoro-N-(2-imidazol-1-yl-ethyl)-benzamide] | 8 nM | 73 nM | 400 nM | 14 nM
14 | Nc1ncc(-c2cnc3ccc(-c4ccc(OCCN5CCCC5=O)cc4)nn23)cc1C(F)(F)F [Example 97, 1-(2-{4-[3-(6-Amino-5-trifluoro-methyl-pyridin-3-yl)-imidazo [1,2-b]pyridazin-6-yl]-phenoxy}-ethyl)-pyrrolidin-2-one] | 75 nM | 1550 nM | 1020 nM | 56 nM
15 | NCCOc1ccc(-c2ccc3ncc(-c4cnc(N)c(C(F)(F)F)c4)n3n2)cc1 [Example 74, 5-{6-[4-(2-Amino-ethoxy)-phenyl]-imidazo [1,2-b]pyridazin-3-yl}-3-trifluoro-methyl-pyridin-2-ylamine] | 159 nM | 147 nM | 1430 nM | 162 nM
16 | Nc1ncc(-c2ccc3ncc(-c4ccc(C(=O)N5CCN(CCN6CCOCC6)CC5)c(F)c4)n3n2)cc1C(F)(F)F [Example 106, {4-[6-(6-Amino-5-trifluoro-methyl-pyridin-3-yl)-imidazo [1,2-b]pyridazin-3-yl]-2-fluoro-phenyl}-[4-(2-morpholin-4-yl-ethyl)-piperazin-1-yl]-methanone] | 171 nM | > 9100 nM | 788 nM | 291 nM
17 | CC(C)(C)OC(=O)NCCOc1ccc(-c2ccc3ncc(-c4cnc(N)c(C(F)(F)F)c4)n3n2)cc1 [Example 73, (2-{4-[3-(6-Amino-5-trifluoro-methyl-pyridin-3-yl)-imidazo [1,2-b]pyridazin-6-yl]-phenoxy}-ethyl)-carbamic acid tert-butyl ester] | 725 nM | > 9100 nM | > 9100 nM | 3950 nM
18 | Nc1ncc(-c2ccc3ncc(-c4ccc(C(=O)NCCCN5CCOCC5)c(F)c4)n3n2)cc1C(F)(F)F [Example 100, 4-[6-(6-Amino-5-trifluoro-methyl-pyridin-3-yl)-imidazo [1,2-b]pyridazin-3-yl]-2-fluoro-N-(3-morpholin-4-yl-propyl)-benzamide] | 24 nM | 94 nM | 419 nM | 26 nM
19 | COc1ccc(-c2cnc3ccc(-c4cnc5[nH]ccc5c4)nn23)cc1OC [Example 42, 3-(3,4-Dimethoxy-phenyl)-6-(1H-pyrrolo[2,3-b]pyridin-5-yl)-imidazo [1,2-b] pyridazine] | 635 nM | > 9100 nM | > 9100 nM | 624 nM
20 | COc1cccc(-c2ccc3ncc(-c4cnc5[nH]ccc5c4)n3n2)c1 [Example 78, 6-(3-Methoxy-phenyl)-3-{1H-pyrrolo [2.3-b]pyridin-5-yl)-imidazo [1,2-b] pyridazine] | 130 nM | 2060 nM | 4040 nM | 1060 nM
21 | COc1nc(-c2cnc3ccc(-c4cnc(N)c(C(F)(F)F)c4)nn23)cnc1N [Example 67, 5-[6-(6-Amino-5-trifIuoro-methyl-pyridin-3-yl)-imidazo[1,2-b]pyridazin-3-yl]-3-methoxy-pyrazin-2-ylamine] | 34 nM | 21 nM | 2630 nM | 85 nM
